From US20100069441A1, “ANTIMICROBIAL INDOLINE COMPOUNDS FOR TREATMENT OF BACTERIAL INFECTIONS” (priority 2008, published 2010)
pIC50: −log10 of the molar value. Values after ≈ are worked out from the molar mass of the structure shown. Like-named read-outs stand apart in the source and are kept apart here.

Columns and labels:
[1] = system: human CD34+ bone marrow cells; experiment: Bone marrow CD34+ cell growth inhibition (myelosuppressive potential), luminescence assay; format: cell-based; settings: normalized IC50 ratio over reference compound of Example 18; incubation 9-10 days; higher ratio = reduced myelosuppression
Experimental: Myelosuppressive potential (hematopoietic or bone marrow toxicity) was evaluated using human CD34^+ bone marrow cells, generally following methods described by Leach in International Patent Publication No. WO 2006/097828. Thus, an oxazolidinone compound was incubated with fresh human bone marrow cells for 9-10 days at 37° C. in 5% CO2 atmosphere. At end of the incubation period, the bone marrow toxicity was accessed by measuring inhibition (IC50, μg/mL) of CD34^+ cell growth using a luminescence assay. Lower IC50 value indicates a higher myelosuppression potential with enhanced probability of undesired adverse effects in vivo, while a higher IC50 value indicates reduced bone marrow toxicity. For comparison, the data are represented as normalized IC50 ratio indicating the fold of improvement over the reference compound of Example 18, based on IC50 for each compound in the CD34 assay.

[2] = system: S. aureus; experiment: In vivo antibacterial efficacy (ED50) in mice infected intraperitoneally; settings: Staphylococcus aureus, po
Experimental: Determination of in vivo efficacy was performed by inoculating mice intraperitoneally with cultures of infecting organism using Linezolid as control. The compound was dissolved in DMSO with 20% cyclodextrin, diluted with deionized water, and administered orally (p.o.). The mice were dosed 1 hours after infection. Mortality was recorded after 72 hours. The 50% effective dose (ED50, mg/kg) was calculated at the end of the test.

[3] = system: methicillin-resistant Staphylococcus aureus (MRSA; from the Massachusetts General Hospital, USA); experiment: Antibacterial activity (MIC) against MRSA clinical isolate; format: cell-based; settings: clinical isolate of MRSA, agar dilution
Excerpt: Compounds of this invention can have useful activity against a variety of pathogenic microorganisms. The in vitro activity of compounds of this invention can be assessed by standard testing procedures such as the determination of minimum inhibitory concentration (MIC) by agar dilution as described in “Approved Standard. Methods for Dilution Antimicrobial Susceptibility Tests for Bacteria That Grow Aerobically”, 3rd. ed., published 1993 by the National Committee for Clinical Laboratory Standards, Villanova, Pennsylvania, USA. Minimum inhibitory concentration (MIC) refers to the lowest concentration of drug (μg/mL) that inhibits visible growth of the organism. Lower MIC values indicate a higher antibacterial activity. […] The useful activity of compounds of the present invention against a clinical isolate of methicillin-resistant Staphylococcus aureus (MRSA; from the Massachusetts General Hospital, USA) is illustrated by the MIC data of Table 1.

[4] = target: T1, Human monoamine oxidase (MOA) A type enzyme (Homo sapiens, UniProt P21397); experiment: Monoamine oxidase A inhibition (MAO-Glo assay); format: biochemical; settings: MAO-Glo kit
T1 construct: purchased BD Gentest
T1 sequence (P21397 1-527): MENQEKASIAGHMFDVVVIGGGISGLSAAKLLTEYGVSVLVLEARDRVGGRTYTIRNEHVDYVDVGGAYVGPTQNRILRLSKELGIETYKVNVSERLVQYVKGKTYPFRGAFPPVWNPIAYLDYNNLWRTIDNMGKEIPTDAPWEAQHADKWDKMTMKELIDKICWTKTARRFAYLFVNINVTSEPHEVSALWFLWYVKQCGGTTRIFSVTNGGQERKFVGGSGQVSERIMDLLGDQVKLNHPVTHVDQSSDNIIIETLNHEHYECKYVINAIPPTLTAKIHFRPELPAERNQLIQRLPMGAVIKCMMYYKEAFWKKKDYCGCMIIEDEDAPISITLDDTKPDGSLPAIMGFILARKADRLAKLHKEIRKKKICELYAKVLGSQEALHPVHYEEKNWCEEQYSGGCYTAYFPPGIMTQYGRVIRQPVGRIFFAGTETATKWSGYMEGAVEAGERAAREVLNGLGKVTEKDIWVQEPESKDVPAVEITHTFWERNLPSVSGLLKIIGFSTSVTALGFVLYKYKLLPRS
Experimental: Human monoamine oxidase (MOA) A type enzyme inhibition activity for select compounds was measured using a commercial MAO assay kit MAO-Glo™ from Promega Co. (USA). The assay was performed as described in the company's technical bulletin “MAO-Glo™ Assay”. The protocol involves an incubation of the MAO A enzyme (BD Gentest™) with a luminogenic MAO substrate to produce an enzymatic product which is converted to luciferin by a coupled reaction. The released luciferin undergoes further transformation to generate light that is detected and measured. The amount of the light is directly proportional to the activity of MAO. Percent inhibition at several concentrations is established relative to the uninhibited control rate, and the IC50 (μg/mL) values are calculated. […] The MAO inhibition data for select compound of this invention are illustrated in the Table 3 below.

[5] = mice, p.o., dosed 1 hour after infection, mortality recorded after 72 hours, read-out: ED50

MIC [3] [µg/mL]	pIC50 [4]	Structure (SMILES)	CD34 IC50 RATIO [1]	ED50 [2] [mg/kg]	ED50 [2, 5] [mg/kg]
–	–	Cc1cnnn1-c1ccc(-c2ccc3c(c2)C[C@H]2[C@H](CO)OC(=O)N32)cn1 [Example 20]	14.8	–	–
–	–	Cc1nnc(-c2ccc(-c3ccc4c(c3)C[C@H]3[C@H](COP(=O)([O-])[O-])OC(=O)N43)cn2)o1.[Na+].[Na+] [Example 32]	–	10	–
1 (≈ 2.38 µM)	–	CC(=O)NC[C@@H]1OC(=O)N2c3ccc(-c4ccc(-c5cc(CO)on5)nc4)cc3C[C@H]12 [Example 17]	4.5	–	–
0.25 (≈ 0.656 µM)	–	O=C1O[C@@H](CO)[C@@H]2Cc3cc(-c4ccc(-n5cc(CF)nn5)nc4)ccc3N12 [Example 27]	1.6	–	–
–	–	Cn1ncc(-c2ccc(-c3ccc4c(c3)C[C@H]3[C@H](CO)OC(=O)N43)cn2)n1 [Example 22]	8.3	–	–
–	–	N#CCc1cn(-c2ccc(-c3ccc4c(c3)C[C@H]3[C@H](COP(=O)([O-])[O-])OC(=O)N43)cn2)nn1.[Na+].[Na+] [Example 39]	–	–	10
0.5 (≈ 1.28 µM)	4.37	CC(=O)NC[C@@H]1OC(=O)N2c3ccc(-c4ccc(-n5cncn5)nc4)cc3C[C@H]12 [Example 16]	–	–	–
0.25 (≈ 0.688 µM)	–	Cc1cn(-c2ccc(-c3ccc4c(c3)C[C@H]3[C@H](CO)OC(=O)N43)cn2)nn1 [Example 30]	4.1	–	–
–	–	Cn1nncc1-c1ccc(-c2ccc3c(c2)C[C@H]2[C@H](COP(=O)([O-])[O-])OC(=O)N32)cn1.[Na+].[Na+] [Example 33]	–	9.1	–
1 (≈ 2.37 µM)	< 3.62	COC(=O)NC[C@@H]1OC(=O)N2c3ccc(-c4ccc(-c5nnn(C)n5)nc4)cc3C[C@@H]12 [Example 7]	–	–	–
0.25 (≈ 0.681 µM)	–	O=C1OCCN1c1ccc(-c2ccc3c(c2)C[C@H]2[C@H](CO)OC(=O)N32)cn1 [Example 28]	2.3	–	–
1 (≈ 2.75 µM)	–	Cn1cc(-c2ccc(-c3ccc4c(c3)C[C@H]3[C@H](CO)OC(=O)N43)cn2)nn1 [Example 26]	11.4	–	–
1 (≈ 2.38 µM)	< 3.62	CC(=O)NC[C@@H]1OC(=O)N2c3ccc(-c4ccc(-n5cc(CO)nn5)nc4)cc3C[C@H]12 [Example 13]	2.5	–	–
–	–	Cn1nnc(-c2ccc(-c3ccc4c(c3)C[C@H]3[C@H](COP(=O)([O-])[O-])OC(=O)N43)cn2)n1.[Na+].[Na+] [Example 5]	–	–	5.6
2 (≈ 5.93 µM)	4.92	CC(=O)NC[C@H]1CN(c2ccc(N3CCOCC3)c(F)c2)C(=O)O1 [Linezolid, linezolid, reference compound]	–	–	–
1 (≈ 2.47 µM)	< 3.61	CC(=O)NC[C@@H]1OC(=O)N2c3ccc(-c4ccc(-c5noc(C)n5)nc4)cc3C[C@@H]12 [Example 14]	2.0	–	–
1 (≈ 2.23 µM)	–	CC(=O)NC[C@@H]1OC(=O)N2c3ccc(-c4ccc(-n5cc(C(C)(C)O)nn5)nc4)cc3C[C@@H]12 [Example 12]	2.5	–	–
4 (≈ 9.58 µM)	–	CC(=O)NC[C@@H]1OC(=O)N2c3ccc(-c4ccc(-n5cc(C)nc5C)nc4)cc3C[C@H]12 [Example 15]	–	–	–
1 (≈ 2.65 µM)	–	Cc1nnn(-c2ccc(-c3ccc4c(c3)C[C@H]3[C@H](CO)OC(=O)N43)cn2)c1C [Example 29]	15.5	–	–
–	–	CC(=O)NC[C@@H]1OC(=O)N2c3ccc(-c4cccnc4)cc3C[C@H]12 [Example 18, reference compound]	1	–	–

Structure (SMILES)	MIC [3] [µg/mL]	pIC50 [4]	CD34 IC50 RATIO [1]	ED50 [2] [mg/kg]	ED50 [2, 5] [mg/kg]
N#CCn1nnc(-c2ccc(-c3ccc4c(c3)C[C@H]3[C@H](CO)OC(=O)N43)cn2)n1 [Example 21]	0.25 (≈ 0.642 µM)	–	2.3	–	9.5
N#CCc1cn(-c2ccc(-c3ccc4c(c3)C[C@H]3[C@H](CO)OC(=O)N43)cn2)nn1 [Example 24]	0.25 (≈ 0.644 µM)	–	1.6	–	9.8
O=C1O[C@@H](CO)[C@@H]2Cc3cc(-c4ccc(-n5cnnn5)nc4)ccc3N12 [Example 3]	0.25 (≈ 0.714 µM)	–	–	–	3.3
Cn1nncc1-c1ccc(-c2ccc3c(c2)C[C@H]2[C@H](CO)OC(=O)N32)cn1 [Example 25]	0.25 (≈ 0.688 µM)	–	4.9	–	9.6
Cn1nnnc1-c1ccc(-c2ccc3c(c2)C[C@H]2[C@H](CO)OC(=O)N32)cn1 [Example 2]	0.5 (≈ 1.37 µM)	–	3.3	–	6.1
Cc1nnc(-c2ccc(-c3ccc4c(c3)C[C@H]3[C@H](CO)OC(=O)N43)cn2)o1 [Example 23]	0.25 (≈ 0.686 µM)	–	2.5	–	5.3
Cn1nnc(-c2ccc(-c3ccc4c(c3)C[C@H]3[C@H](CO)OC(=O)N43)cn2)n1 [Example 1]	0.5 (≈ 1.37 µM)	–	4.6	–	4.2
